Where two headings read alike, the source gives them in different places.
Columns and labels:
P. aeruginosa PAO1 = assay: Growth (optical density) of P. aeruginosa PAO1; assay type: cell-based, Pseudomonas aeruginosa
Procedure: (§1) AHL and furanone bioassay. Strains were grown exponentially in LB or ABt medium supplemented with 0.5% glucose at 30° C., shading at 250 rpm. At an optical density of approximately 0.8. the cultures were diluted and split into subcultures in glass culture flasks. AHLs and furanone 56 were added to appropriate concentrations and the cultures were further incubated at 30° C. under vigorous shaking. Culture samples were retrieved at various time intervals and green fluorescence was measured with a fluorometer (model RF-1501, Shimadzu, Tokyo, Japan) set at an excitation wavelength of 475 nm and emission wavelength of 515 nm. Relative fluorescence was calculated as green fluorescence normalized to 1 ml culture divided by the optical density (OD600 nm.
(§2) To determine if the furanone compound worked specifically on the las quorum sensor and not indirectly by disruption of primary metabolic functions, we followed growth as optical density of P. aeruginosa PAO1 in the presence of furanone 56. […] Further, we tested whether the furanone affected P. aeruginosa protein synthesis. The wild type P. aeruginosa PAO1 strain containing the consitutive Gfp-expression vector pMH306 was grown in the presence of furanone 56 at concentrations from 0 to 10 μ/ml. Gfp-expression (fluorescence/OD600 nm) was throughout the growth cycle unaffected by the presence of furanone compound (data not shown).

[1] = test system: OHHL induced LuxR dependent expression of GFP; assay: Quantitative furanone inhibition of the LuxR-PluxI-gfp(ASV) quorum sensor in E. coli MT102 (pJBA89); assay type: cell-based, Escherichia coli; conditions: gradient of furanone concentration lowering RFU to 40% versus OHHL concentration (5-100 nM)
Source text: To analyse the AHL antagonist activity of the halogenated furanones we tested the compounds for their ability to inhibit 3oxo-C6-HSL (OHHL) induced LuxR dependent expression of green fluorescent protein (GFP) from a Pgfp(ASV) fusion in the AHL monitor strain E. coli MT102 harbouring pJBA89 (Andersen et al., 2001).
The medium used is minimal ABT containing 0.5% glucose and 0.5% Casamino Acids. In growing cultures of the AHL monitor strain E. coli Mt102 (pJBA89) encoding […] and a P-gfp(ASV) fusion, GFP(ASV) is produced immediately upon OHHL addition specifically from the LuxR controlled P-gfp(ASV) fusion gene. The sensitivity is high (responsive to as little as 3 nm OHHL) and due to the instability built into the GFP (ASV) variant there is no background production of green fluoroscence (Andersen et al., 2001). GFP expression from the AHL monitor strain E. coli MT102 (pJBA89) and the control strain MT102 harbouring the lacl^q, Plas-gfp(ASV) IPTG inducible expression system pMH197 was quantified in the following way. Overnight cultures were diluted four fold in fresh medium and incubated for one hour at 30° C. while OHHL and furanone compounds in the required concentrations were mixed in the wells of microtiter dishes. […] When absolute values were required, green fluoroscence was measured on a fluorometer (model RF-1501; Shimadzu, Tokyo, Japan) act at an excitation wavelength of 475 nm and emission detection at 515 nm. To establish a correlation between the colour code of the ARGUS-50 captured images and green fluorescence, both colour and relative fluorescence units (RFU), were determined for a dilution series of an E. coli MT102 (pJBA89) culture which had been incubated with […]. […]
From the second plot, the furanone concentration reducing the relative activity to 40% (ID60) is determined for each OHHL concentration. […]
To enable easy comparison of the strength of the furanones, an inhibition index (IIX40) is calculated for each furanone compound. […]

P. aeruginosa PAO-JP2 = assay: Growth of P. aeruginosa PAO-JP2; assay type: cell-based, Pseudomonas aeruginosa; conditions: data not shown
[2] = test system: las quorum sensing system (lasB-gfp(ASV) expression); assay: PlasB-gfp(ASV) reporter in planktonic wild type P. aeruginosa PAO1; assay type: cell-based, Pseudomonas aeruginosa; conditions: for reduction in lasB(ASV) expression: wild type P. aeruginosa
Procedure: as §1
The PlasB-gfp(ASV) reporter was inserted into the chromosome of wild type P. aeruginosa. […] The quorum size for lasB-gfp(ASV) induction corresponded to a cell density slightly above […] of 1.0, which is in agreement with other reports (Brumilk & Storey, 1992).

[3] = test system: P. aeruginosa protein synthesis; assay: Constitutive Gfp-expression (pMH306) in PAO1, protein synthesis control; assay type: cell-based, Pseudomonas aeruginosa; conditions: PAO1 with pMH306, furanone 0 to 10 μ/ml; data not shown
Procedure: as §2

chitinase = assay: Virulence factor production: chitinase activity of PAO-JP2 supernatant; assay type: cell-based, Pseudomonas aeruginosa; conditions: PAO-JP2, 70 nm OdDHL plus 3 μg/ml and 5 μg/ml furanone 56
Procedure: The chitinase activity assay was performed as described by the assay manufacturer (Loewe Biochemica, Sauerlach, Germany). Supernatant (560 μl) of cultures prepared as described for the elastase assay was mixed with carboxymethyl-chitin-remazol brilliant violet (200 μl) and sodium phosphate buffer (40 μl, 1 M, pH 7.5). The reaction mixture was incubated for 18 h at 40° C. in a waterbath. The reaction was stopped by addition of HCl (200 μl, 2 N) and kept for 15 min on ice. After centrifugation (10 min at 15000 rpm), the absorbance (OD550 nm) of the supernatant was measured. The relative chitinase activity was calculated as OD550 nm/OD600 nm normalized to 1 ml supernatant.

## O=C1C=C/C(=C/Br)O1 [furanone 56]
P. aeruginosa PAO1
  concentrations without effect on growth: < 10 µg/mL
P. aeruginosa PAO1; PAO1, concentrations used for this study (up to 10 μg/ml)
  effect on growth: no or only little effect on growth
P. aeruginosa PAO1; listed as furanone
  concentrations without effect on growth: below 10 μg/ml
[1]
  inhibition index (IIX40): 0.51 mole of furanone per mmole of
P. aeruginosa PAO-JP2
  effect on growth rate: no effect on growth rate
[2]; 5 μg/ml (28.5 μM) furanone
  reduction in lasB(ASV) expression: 40%
[2]; 10 μg/ml furanone
  reduction in lasB(ASV) expression: 60%
[2]; planktonic cultures of PAO1
  reduction of transcription of the lasB promoter: approximately 2 fold
[3]
  Gfp-expression (fluorescence/OD600 nm) throughout the growth cycle: unaffected
chitinase
  chitinase activity: close to the uninduced level
